Organism: Rattus norvegicus
Assay: DrugMatrix - Regimen: Daily Repeat
Assay type: toxicity, organism-based, Sprague-Dawley
Parameters: regimen Daily Repeat, gender Male, age 6-8 weeks
Details: in vivo, iv, vehicle 100 % SALINE; for ABSOLUTE BASOPHIL / ABSOLUTE EOSINOPHIL / ABSOLUTE LYMPHOCYTE / ABSOLUTE MONOCYTE / ABSOLUTE SEGMENTED NEUTROPHIL / BASOPHIL / EOSINOPHIL / ERYTHROCYTE COUNT / HEMATOCRIT / HEMOGLOBIN / LEUKOCYTE COUNT / LYMPHOCYTE / MEAN CORPUSCULAR HEMOGLOBIN / MEAN CORPUSCULAR HEMOGLOBIN CONCENTRATION / MEAN CORPUSCULAR VOLUME / MONOCYTE / NEUTROPHIL / NUCLEATED RED BLOOD CELLS / PLATELET COUNT: tissue Blood; for ALANINE AMINOTRANSFERASE / ALBUMIN / ALKALINE PHOSPHATASE / ASPARTATE AMINOTRANSFERASE / BLOOD UREA NITROGEN / CARBON DIOXIDE / CHLORIDE / CHOLESTEROL / CREATINE PHOSPHOKINASE / CREATININE / GLUCOSE / LACTATE DEHYDROGENASE / LIPASE / PHOSPHORUS / POTASSIUM / SODIUM / TOTAL BILIRUBIN / TOTAL PROTEIN / URIC ACID: tissue Plasma
[1] = 200 mg/kg, 72 h, dose level Low, time 3 day
[2] = 200 mg/kg, 120 h, dose level Low, time 5 day
[3] = 671 mg/kg, 72 h, dose level High, time 3 day
[4] = 671 mg/kg, 120 h, dose level High, time 5 day

CC1(C)[C@H](C(=O)O)N2C(=O)C[C@H]2S1(=O)=O [SULBACTAM]
ABSOLUTE BASOPHIL [1]: 0 CELLS/uL
ABSOLUTE EOSINOPHIL [1]: 43 CELLS/uL
ABSOLUTE LYMPHOCYTE [1]: 14561.67 CELLS/uL
ABSOLUTE MONOCYTE [1]: 271 CELLS/uL
ABSOLUTE SEGMENTED NEUTROPHIL [1]: 824.33 CELLS/uL
BASOPHIL [1]: 0%
EOSINOPHIL [1]: 0.33%
ERYTHROCYTE COUNT [1]: 5.6 x10E6/uL
HEMATOCRIT [1]: 36.53%
HEMOGLOBIN [1]: 13.5 G/DL
LEUKOCYTE COUNT [1]: 15.7 x10E3/uL
LYMPHOCYTE [1]: 93%
MEAN CORPUSCULAR HEMOGLOBIN [1]: 24.1 pg
MEAN CORPUSCULAR HEMOGLOBIN CONCENTRATION [1]: 36.97 G/DL
MEAN CORPUSCULAR VOLUME [1]: 65.23 fL
MONOCYTE [1]: 1.67%
NEUTROPHIL [1]: 5%
NUCLEATED RED BLOOD CELLS [1]: 0 /100WBC
PLATELET COUNT [1]: 1408.33 x10E3/uL
ALANINE AMINOTRANSFERASE [1]: 53.67 u/L
ALBUMIN [1]: 4.27 G/DL
ALKALINE PHOSPHATASE [1]: 448.33 u/L
ASPARTATE AMINOTRANSFERASE [1]: 100 u/L
BLOOD UREA NITROGEN [1]: 15.67 mg/dL
CARBON DIOXIDE [1]: 25 mmol/L
CHLORIDE [1]: 104.33 MEQ/L
CHOLESTEROL [1]: 75.67 mg/dL
CREATINE PHOSPHOKINASE [1]: 386 u/L
CREATININE [1]: 0.21 mg/dL
GLUCOSE [1]: 148.33 mg/dL
LACTATE DEHYDROGENASE [1]: 566.33 u/L
LIPASE [1]: 9 u/L
PHOSPHORUS [1]: 14.37 mg/dL
POTASSIUM [1]: 6.91 MEQ/L
SODIUM [1]: 147.5 MEQ/L
TOTAL BILIRUBIN [1]: 0.2 mg/dL
TOTAL PROTEIN [1]: 5.87 G/DL
URIC ACID [1]: 2.33 mg/dL
ABSOLUTE BASOPHIL [2]: 0 CELLS/uL
ABSOLUTE EOSINOPHIL [2]: 0 CELLS/uL
ABSOLUTE LYMPHOCYTE [2]: 14657 CELLS/uL
ABSOLUTE MONOCYTE [2]: 318 CELLS/uL
ABSOLUTE SEGMENTED NEUTROPHIL [2]: 925 CELLS/uL
BASOPHIL [2]: 0%
EOSINOPHIL [2]: 0%
ERYTHROCYTE COUNT [2]: 5.84 x10E6/uL
HEMATOCRIT [2]: 37.7%
HEMOGLOBIN [2]: 14.03 G/DL
LEUKOCYTE COUNT [2]: 15.9 x10E3/uL
LYMPHOCYTE [2]: 92%
MEAN CORPUSCULAR HEMOGLOBIN [2]: 24.03 pg
MEAN CORPUSCULAR HEMOGLOBIN CONCENTRATION [2]: 37.23 G/DL
MEAN CORPUSCULAR VOLUME [2]: 64.47 fL
MONOCYTE [2]: 2%
NEUTROPHIL [2]: 6%
NUCLEATED RED BLOOD CELLS [2]: 0 /100WBC
PLATELET COUNT [2]: 1395.33 x10E3/uL
ALANINE AMINOTRANSFERASE [2]: 49.67 u/L
ALBUMIN [2]: 4.37 G/DL
ALKALINE PHOSPHATASE [2]: 374.33 u/L
ASPARTATE AMINOTRANSFERASE [2]: 126 u/L
BLOOD UREA NITROGEN [2]: 17 mg/dL
CARBON DIOXIDE [2]: 23 mmol/L
CHLORIDE [2]: 109 MEQ/L
CHOLESTEROL [2]: 81.67 mg/dL
CREATINE PHOSPHOKINASE [2]: 1350 u/L
CREATININE [2]: 0.18 mg/dL
GLUCOSE [2]: 184.33 mg/dL
LACTATE DEHYDROGENASE [2]: 397.67 u/L
LIPASE [2]: 9.67 u/L
PHOSPHORUS [2]: 15.07 mg/dL
POTASSIUM [2]: 6.82 MEQ/L
SODIUM [2]: 147.1 MEQ/L
TOTAL BILIRUBIN [2]: 0.17 mg/dL
TOTAL PROTEIN [2]: 6.2 G/DL
URIC ACID [2]: 2.3 mg/dL
ABSOLUTE BASOPHIL [3]: 0 CELLS/uL
ABSOLUTE EOSINOPHIL [3]: 155 CELLS/uL
ABSOLUTE LYMPHOCYTE [3]: 10321.67 CELLS/uL
ABSOLUTE MONOCYTE [3]: 230 CELLS/uL
ABSOLUTE SEGMENTED NEUTROPHIL [3]: 793.33 CELLS/uL
BASOPHIL [3]: 0%
EOSINOPHIL [3]: 1%
ERYTHROCYTE COUNT [3]: 5.18 x10E6/uL
HEMATOCRIT [3]: 33.43%
HEMOGLOBIN [3]: 12.83 G/DL
LEUKOCYTE COUNT [3]: 11.5 x10E3/uL
LYMPHOCYTE [3]: 90.33%
MEAN CORPUSCULAR HEMOGLOBIN [3]: 24.77 pg
MEAN CORPUSCULAR HEMOGLOBIN CONCENTRATION [3]: 38.4 G/DL
MEAN CORPUSCULAR VOLUME [3]: 64.63 fL
MONOCYTE [3]: 2%
NEUTROPHIL [3]: 6.67%
NUCLEATED RED BLOOD CELLS [3]: 0 /100WBC
PLATELET COUNT [3]: 1400 x10E3/uL
ALANINE AMINOTRANSFERASE [3]: 58 u/L
ALBUMIN [3]: 4.2 G/DL
ALKALINE PHOSPHATASE [3]: 390 u/L
ASPARTATE AMINOTRANSFERASE [3]: 79.67 u/L
BLOOD UREA NITROGEN [3]: 16.67 mg/dL
CARBON DIOXIDE [3]: 23.67 mmol/L
CHLORIDE [3]: 105 MEQ/L
CHOLESTEROL [3]: 91.67 mg/dL
CREATINE PHOSPHOKINASE [3]: 323 u/L
CREATININE [3]: 0.17 mg/dL
GLUCOSE [3]: 164.67 mg/dL
LACTATE DEHYDROGENASE [3]: 190.67 u/L
LIPASE [3]: 9.67 u/L
PHOSPHORUS [3]: 13.3 mg/dL
POTASSIUM [3]: 6.52 MEQ/L
SODIUM [3]: 144.27 MEQ/L
TOTAL BILIRUBIN [3]: 0.2 mg/dL
TOTAL PROTEIN [3]: 5.83 G/DL
URIC ACID [3]: 1.6 mg/dL
ABSOLUTE BASOPHIL [4]: 0 CELLS/uL
ABSOLUTE EOSINOPHIL [4]: 174 CELLS/uL
ABSOLUTE LYMPHOCYTE [4]: 13614.33 CELLS/uL
ABSOLUTE MONOCYTE [4]: 314 CELLS/uL
ABSOLUTE SEGMENTED NEUTROPHIL [4]: 1597.67 CELLS/uL
BASOPHIL [4]: 0%
EOSINOPHIL [4]: 1%
ERYTHROCYTE COUNT [4]: 5.71 x10E6/uL
HEMATOCRIT [4]: 36.2%
HEMOGLOBIN [4]: 13.7 G/DL
LEUKOCYTE COUNT [4]: 15.7 x10E3/uL
LYMPHOCYTE [4]: 86.67%
MEAN CORPUSCULAR HEMOGLOBIN [4]: 24 pg
MEAN CORPUSCULAR HEMOGLOBIN CONCENTRATION [4]: 37.87 G/DL
MEAN CORPUSCULAR VOLUME [4]: 63.33 fL
MONOCYTE [4]: 2%
NEUTROPHIL [4]: 10.33%
NUCLEATED RED BLOOD CELLS [4]: 0 /100WBC
PLATELET COUNT [4]: 1356 x10E3/uL
ALANINE AMINOTRANSFERASE [4]: 44.33 u/L
ALBUMIN [4]: 4.33 G/DL
ALKALINE PHOSPHATASE [4]: 277 u/L
ASPARTATE AMINOTRANSFERASE [4]: 78 u/L
BLOOD UREA NITROGEN [4]: 18.33 mg/dL
CARBON DIOXIDE [4]: 26.67 mmol/L
CHLORIDE [4]: 108.33 MEQ/L
CHOLESTEROL [4]: 75.67 mg/dL
CREATINE PHOSPHOKINASE [4]: 555.67 u/L
CREATININE [4]: 0.17 mg/dL
GLUCOSE [4]: 164.67 mg/dL
LACTATE DEHYDROGENASE [4]: 144 u/L
LIPASE [4]: 9 u/L
PHOSPHORUS [4]: 13.8 mg/dL
POTASSIUM [4]: 6.54 MEQ/L
SODIUM [4]: 148.8 MEQ/L
TOTAL BILIRUBIN [4]: 0.17 mg/dL
TOTAL PROTEIN [4]: 6.43 G/DL
URIC ACID [4]: 1.67 mg/dL

From ChEMBL document CHEMBL3885881, “DrugMatrix”
